For assay [1], the system named is four human cancer cell lines (A-549, MCF-7, Panc-1, HT-29). Nature of the assay: Antiproliferative assay, average over the four cancer cell lines (GI50). The conditions noted are these: average of the four cancer cell lines. In kind it is cell-based. The method, then: (§1) See Supplementary Materials.
(§2) 4.2.1.2. Assay for antiproliferative effect
To explore the antiproliferative potential of compounds propidium iodide fluorescence assay was performed using different cell lines such as Panc-1 (pancreas cancer cell line), MCF-7 (breast […]
(§3) To calculate the total nuclear DNA, a fluorescent dye (propidium iodide, PI) is used which can attach to the DNA, thus offering a quick and precise technique. PI cannot pass through the cell membrane and its signal intensity can be considered as directly proportional to quantity of cellular
DNA. Cells whose cell membranes are damaged or have changed permeability are counted as dead ones. The assay was performed by seeding the cells of different cell lines at a density of 3000- […]
(§4) The medium was removed; the compounds were added to the plates at 10 μM concentrations (in 0.1% DMSO) in triplicates, followed by incubation for 48h. DMSO (0.1%) was used as control. After incubation, medium was removed followed by the addition of PI (25 μl, 50μg/mL in water/medium) to each well of the plates. At - 80 °C, the plates were allowed to freeze for 24 h, followed by thawing at 25 °C. A fluorometer (Polar-Star BMG Tech) was used to record the readings at excitation and emission wavelengths of 530 and 620 nm for each well. The percentage cytotoxicity of compounds was calculated using […]
Where ATC= Absorbance of treated cells and AC= Absorbance of control. […]
positive control in the assay.

In assay [2] the test system is pancreatic cancer (Panc-1) cell line. Nature of the assay: Antiproliferative assay, Panc-1. The conditions noted are these: Homo sapiens, read-out: Antiproliferative Activity IC50 ± SEM, Panc-1. In kind it is cell-based. As for the experimental part:
as §2
(§5) To explore the antiproliferative potential of compounds propidium iodide fluorescence assay was performed using different cell lines such as Panc-1 (pancreas cancer cell line), MCF-7 (breast cancer cell line), HT-29 (colon cancer cell line) and A-549 (epithelial cancer cell line), respectively.
as §3
as §4, with “DNA. Cells whose cell membranes are damaged or have changed permeability are counted as dead ones. The assay was performed by seeding the cells of different cell lines at a density of 3000-7500 cells/well (in200μl medium) in culture plates followed by incubation for 24h at 37 °C in humidified 5%CO2/95% air atmospheric conditions. The medium” for “The medium”
(§6) Where ATC= Absorbance of treated cells and AC= Absorbance of control. Erlotinib was used as positive control in the assay.

The test system of assay [3] is breast cancer (MCF-7) cell line. Nature of the assay: Antiproliferative assay, MCF-7. The format is cell-based. The note with it: Homo sapiens, MCF7; read-out: Antiproliferative Activity IC50 ± SEM, MCF-7. The method, then: as §2, §5, §3
as §4, with “DNA. Cells whose cell membranes are damaged or have changed permeability are counted as dead ones. The assay was performed by seeding the cells of different cell lines at a density of 3000-7500 cells/well (in200μl medium) in culture plates followed by incubation for 24h at 37 °C in humidified 5%CO2/95% air atmospheric conditions. The medium” for “The medium”
as §6

For the next assay, the system named is caspase-8. Nature of the assay: Caspase-8 level assay in A-549 cells. The note with it: for Caspase-8 Conc: control 0.10; for Caspase-8 Fold Change: vs control. In kind it is cell-based, human. As for the experimental part:
as §1
4.2.6. Caspase-8 activation assay […]
caspase8, and lysed with Cell Extraction Buffer. This lysate was diluted in Standard Diluent Buffer over the range of the assay and measured for human active caspase-8 content. (Cells are Plated in a density of 1.2 – 1.8 × 10,000 cells/well in a vo lume of 100µl complete growth medium + 100 ul of the tested compound per well in a 96-well plate for 24 hours before the enzyme assay for Tubulin.). The absorbance of each microwell was read on a spectro-photometer at 450 nm. A standard curve is prepared from 7human Caspase-8 standard dilutions and human Caspase-8 concentration determined. […]

The test system of assay [4] is human epithelial (A-549) cancer cell line. Nature of the assay: Antiproliferative assay, A-549. In kind it is cell-based. The note with it: A549, read-out: Antiproliferative Activity IC50 ± SEM, A-549. As for the experimental part: as §2, §5, §3
as §4, with “DNA. Cells whose cell membranes are damaged or have changed permeability are counted as dead ones. The assay was performed by seeding the cells of different cell lines at a density of 3000-7500 cells/well (in200μl medium) in culture plates followed by incubation for 24h at 37 °C in humidified 5%CO2/95% air atmospheric conditions. The medium” for “The medium”
as §6

The next assay has as its system Bax. Briefly: Bax level assay in A-549 cells. The format is cell-based, human. The conditions noted are these: for Bax Conc: control 9; for Bax Fold Change: vs control. As for the experimental part: caspase8, and lysed with Cell Extraction Buffer. This lysate was diluted in Standard Diluent Buffer over the range of the assay and measured for human active caspase-8 content. […]
4.2.7. Bax activation assay
Bring all reagents, except the human Bax-α Standard, to room temperature for at least 30 minutes prior to opening. The human Bax-α Standard solution should not be left at room temperature for more than 10 minutes. All standards, controls and samples should be run in duplicate. Refer to the Assay Layout Sheet to determine the number of wells to be used and put any remaining wells with the desiccant back into the pouch and seal the ziploc. Store unused wells at 4 °C. Pipet 100 μL of Assay Buffer into the S0 (0 pg/mL standard) wells. Pipet 100 μL of Standards #1 through #6 into the appropriate wells. Pipet 100 μL of the Samples into the appropriate wells. Tap the plate gently to mix the contents. Seal the plate and incubate at room temperature on a plate shaker for 1 hour at ~500 rpm. Empty the contents of the wells and wash by adding 400 μL of wash solution to every well. Repeat the wash 4 more times for a total of 5 washes. After the final wash, empty or aspirate the wells and firmly tap the plate on a lint free paper towel to remove any remaining wash buffer.
Pipet 100 μL of yellow Antibody into each well, except the Blank. Seal the plate and incubate at room temperature on a plate shaker for 1 hour at ~500 rpm. Empty the contents of the wells and wash by adding 400 μL of wash solution to every well. Repeat the wash 4 more times for a total of 5 washes. After the final wash, empty or aspirate the wells and firmly tap the plate on a lint free paper towel to remove any remaining wash buffer. Add 100 μL of blue Conjugate to each well, except the Blank. Seal the plate and incubate at room temperature on a plate shaker for 30 minutes […]
Pipet 100 μL of Substrate Solution into each well. Incubate for 30 minutes at room temperature on a plate shaker at ~500 rpm. Pipet 100 μL Stop Sol ution to each well. Blank the plate reader against the Blank wells, read the optical density at 450 nm. Calculate the average net Optical Density (OD) bound for each standard and sample by subtracting the average Blank OD from the average OD for each standard and sample. Using linear graph paper, plot the Average Net OD for each standard versus Bax concentration in each standard. Approximate a straight line through the points.
The concentration of Bax in the unknowns can be determined by interpolation. […]

With `O=C(NCC(c1ccccc1)c1c(-c2ccccc2)[nH]c2ccccc12)c1cc2cc(Cl)ccc2[nH]1` (stereo not shown) [Compound Va, 5-Chloro-N-(2-phenyl-2-(2-phenyl-1H-indol-3-yl)ethyl)-1H-indole-2-carboxamide], the GI50 in assay [1] was determined as 26 nM. In addition, in assay [2], the half-inhibitory concentration (IC50) was found to be 26 ± 2 nM. The IC50 in assay [3] was 28 ± 2 nM. In the assay with caspase-8, the “Caspase-8 Conc” value worked out at 3.50 ng/mL and the “Caspase-8 Fold Change” value is 35. In addition, the IC50 in assay [4] came out at 25 ± 2 nM. For the same compound, in the assay with Bax, the “Bax Conc” value came out at 410 pg/mL and the “Bax Fold Change” value is listed as 45.
`CO/C=C/c1c(C(=O)NCC(c2ccccc2)c2c(-c3ccccc3)[nH]c3ccccc23)[nH]c2ccc(Cl)cc12` (stereo not shown) [Compound Vg, (E)-5-Chloro-3-(2-methoxyvinyl)-N-(2-phenyl-2-(2-phenyl-1H-indol-3-yl)ethyl)-1H-indole-2-carboxamide] came in with a GI50 in assay [1] of 31 nM. The IC50 in assay [2] came to 30 ± 2 nM. Further, in assay [3], the 50% inhibitory concentration (IC50) amounted to 33 ± 3 nM. In the assay on caspase-8, the “Caspase-8 Conc” value is 2.20 ng/mL and the “Caspase-8 Fold Change” value came out at 22. Moreover, in assay [4], the IC50 stood at 30 ± 2 nM. In addition, in the assay with Bax, the “Bax Conc” value stood at 320 pg/mL and the “Bax Fold Change” value came out at 35.

By GI50 is commonly meant the concentration at which growth is held to half of that of the control. High values mean less potent growth inhibition, low ones more potent growth inhibition. The IC50 is the concentration needed to halve the response being measured.
